Reference: patent US8987314B2, “Amide, urea or sulfone amide linked benzothiazole inhibitors of endothelial lipase” (Bristol-Myers Squibb Company, priority 2012, dated 2015)

Experiments:
hepatic lipase (HL) = hepatic lipase (HL) (Homo sapiens (Human), UniProt P11150); assay: HL assay: hepatic lipase activity with fluorescent substrate A10070 in DMPG vesicles; type: biochemical
Procedure, shortened: (§1)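 Compounds were preincubated with enzyme for 30 min at 37° C before FRET-substrate vesicles (A10070 in DMPG, 0.11 mole fraction) were added. Reaction rates were obtained from the 300–900 sec slope of fluorescence at 490/530 nm.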

Endothelial lipase (EL) = Endothelial lipase (EL) (Homo sapiens (Human), UniProt Q9Y5X9); assay: EL assay: endothelial lipase activity with fluorescent substrate A10070 in DMPG vesicles; type: biochemical
Procedure, shortened: as §1

hepatic lipase (HL), sequence (P11150 23-499, species assumed): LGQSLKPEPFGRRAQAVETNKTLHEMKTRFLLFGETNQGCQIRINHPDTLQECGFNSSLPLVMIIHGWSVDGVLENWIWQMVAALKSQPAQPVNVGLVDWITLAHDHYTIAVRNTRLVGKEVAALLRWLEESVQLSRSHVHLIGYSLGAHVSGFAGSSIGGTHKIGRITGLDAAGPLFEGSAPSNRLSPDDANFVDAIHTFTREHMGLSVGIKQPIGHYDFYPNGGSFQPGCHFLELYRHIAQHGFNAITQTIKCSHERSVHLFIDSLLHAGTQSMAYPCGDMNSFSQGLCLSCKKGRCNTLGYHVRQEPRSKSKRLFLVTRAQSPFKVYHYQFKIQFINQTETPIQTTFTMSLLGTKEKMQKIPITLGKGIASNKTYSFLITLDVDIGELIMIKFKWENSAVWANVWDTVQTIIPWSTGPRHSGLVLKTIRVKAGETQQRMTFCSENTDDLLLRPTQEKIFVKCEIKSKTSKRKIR
Endothelial lipase (EL), sequence (Q9Y5X9 21-500): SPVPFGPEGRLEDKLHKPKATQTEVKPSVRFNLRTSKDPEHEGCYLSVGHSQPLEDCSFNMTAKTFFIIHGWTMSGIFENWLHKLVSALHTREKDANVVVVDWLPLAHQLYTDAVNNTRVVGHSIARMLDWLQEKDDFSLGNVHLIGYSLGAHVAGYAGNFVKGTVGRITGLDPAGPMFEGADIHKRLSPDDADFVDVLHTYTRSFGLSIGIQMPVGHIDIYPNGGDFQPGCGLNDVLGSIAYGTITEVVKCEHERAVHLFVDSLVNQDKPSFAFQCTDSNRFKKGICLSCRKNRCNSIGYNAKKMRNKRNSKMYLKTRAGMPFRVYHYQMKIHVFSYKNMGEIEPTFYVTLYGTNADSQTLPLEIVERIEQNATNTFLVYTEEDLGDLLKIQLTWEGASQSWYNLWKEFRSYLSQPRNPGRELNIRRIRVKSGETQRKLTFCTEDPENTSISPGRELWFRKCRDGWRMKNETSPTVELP

SMILES	IC50 (hepatic lipase (HL)) [nM]	IC50 (Endothelial lipase (EL)) [nM]
CS(=O)(=O)C(C(=O)NCCS(N)(=O)=O)c1nc2ccc(-c3cnn(Cc4ccccc4)c3)cc2s1 (stereo not drawn) [Example B68, 2-[6-(1-benzyl-1H-pyrazol-4-yl)-1,3-benzothiazol-2-yl]-2-(methylsulfonyl)-N-(2-sulfamoylethyl)a-cetamide]	< 10	< 10
Cn1ccc(-c2ccc3nc(C(C(=O)NCCS(N)(=O)=O)S(=O)(=O)CCC(F)(F)F)sc3c2)cc1=O (stereo not drawn) [Example B145, 2-(6-(1-methyl-2-oxo-1,2-dihydro-4-pyridinyl)-1,3-benzothiazol-2-yl)-N-(2-sulfamoylethyl)-2-((3,3,3-trifluoropropyl)sulfonyl)a-cetamide]	362	< 10
COCc1ccc(-c2ccc3sc(C(C(=O)NCCS(N)(=O)=O)S(C)(=O)=O)nc3c2)cc1 (stereo not drawn) [Example B378, 2-methanesulfonyl-2-{5-[4-(methoxymethyl)phen-yl]-1,3-benzothiazol-2-yl}-N-(2-sulfamoylethyl)acetamide]	6.7	0.7
CS(=O)(=O)C(C(=O)NCCS(N)(=O)=O)c1nc2ccc(-c3cncnc3)cc2s1 (stereo not drawn) [Example B146, 2-(methylsulfonyl)-2-(6-(5-pyrimidinyl)-1,3-benzothiazol-2-yl)-N-(2-sulfamoylethyl)acetamide]	916	< 10
CS(=O)(=O)C(C(=O)NCCS(N)(=O)=O)c1nc2ccc(-c3ccc(-c4nnc(N)s4)cc3)cc2s1 (stereo not drawn) [Example B223, 2-{6-[4-(5-amino-1,3,4-thiadiazol-2-yl)phenyl]-1,3-benzothiazol-2-yl}-2-methanesulfonyl-N-(2-sulfamoylethyl)acetamide]	7.7	1.2
CC(=O)Nc1ccc(-c2ccc3sc(C(C(=O)NCCS(N)(=O)=O)S(C)(=O)=O)nc3c2)cc1 (stereo not drawn) [Example B371, 2-[5-(4-acetamidophenyl)-1,3-benzothiazol-2-yl]-2-methanesulfonyl-N-(2-sulfamoylethyl)acetamide]	96.3	3
COCCNC(=O)c1ccc(-c2ccc3nc(C(C(=O)NCCS(N)(=O)=O)S(=O)(=O)Cc4ccc(OC(F)(F)F)cc4)sc3c2)cc1 (stereo not drawn) [Example B113, N-(2-methoxyethyl)-4-(2-(2-oxo-2-((2-sulfamoyl-ethyl)amino)-1-((4-(trifluoromethoxy)ben-zyl)sulfonyl)ethyl)-1,3-benzothiazol-6-yl)ben-zamide]	48.2	0.7
CS(=O)(=O)C(C(=O)NCCS(N)(=O)=O)c1nc2cc(-c3ccc(O)nc3)ccc2s1 (stereo not drawn) [Example B195, 2-(methylsulfonyl)-2-(5-(6-oxo-1,6-dihydro-3-pyridinyl)-1,3-benzothiazol-2-yl)-N-(2-sulfamoylethyl)acetamide]	105	1
NS(=O)(=O)CCNC(=O)C(c1nc2ccc(-c3cccc(Cl)c3)cc2s1)S(=O)(=O)Cc1ccc(F)cc1 (stereo not drawn) [Example B243, 2-[6-(3-chlorophenyl)-1,3-benzothiazol-2-yl]-2-[(4-fluorophenyl)methanesulfon-yl]-N-(2-sulfamoylethyl)a-cetamide]	2.4	4.8
NS(=O)(=O)CCNC(=O)C(c1nc2ccc(-c3ccc(OCCN4CCCCC4)cc3)cc2s1)S(=O)(=O)CCC(F)(F)F (stereo not drawn) [Example B54, 2-(6-(4-(2-(1-piperidinyl)ethoxy)phenyl)-1,3-benzothiazol-2-yl)-N-(2-sulfamoylethyl)-2-((3,3.3-trifluoropropyl)sul-fonyl)acetamide]	23	< 10
NS(=O)(=O)CCNC(=O)C(c1nc2ccc(-c3ccccc3F)cc2s1)S(=O)(=O)Cc1ccc(OC(F)(F)F)cc1 (stereo not drawn) [Example B365, 2-[6-(2-fluorophenyl)-1,3-benzothiazol-2-yl]-N-(2-sulfamoylethyl)-2-{[4-(trifluoromethoxy)phen-yl]methanesulfonyl}a-cetamide]	2.1	17.2
COCCNC(=O)c1ccc(-c2cc3sc(C(C(=O)NCc4nnc(C)o4)S(C)(=O)=O)nc3cc2F)cc1 (stereo not drawn) [Example B266, 4-{5-fluoro-2-[methanesulfonyl({[(5-methyl-1,3,4-oxadiazol-2-yl)methyl]carbamoyl})meth-yl]-1,3-benzothiazol-6-yl}-N-(2-methoxyethyl)ben-zamide]	948	39.1
CC(=O)Nc1ccc(-c2ccc3nc(C(C(=O)NCCS(N)(=O)=O)S(=O)(=O)Cc4ccccc4)sc3c2)cc1 (stereo not drawn) [Example B44, 2-(6-(4-acetamidophenyl)-1,3-benzothiazol-2-yl)-2-(benzylsulfonyl)-N-(2-sulfamoylethyl)acetamide]	148	< 10
NS(=O)(=O)CCNC(=O)C(c1nc2cc(-c3ccc(F)nc3)ccc2s1)S(=O)(=O)Cc1ccc(OC(F)(F)F)cc1 (stereo not drawn) [Example B309, 2-[5-(6-fluoropyridin-3-yl)-1,3-benzothiazol-2-yl]-N-(2-sulfamoylethyl)-2-{[4-(trifluoromethoxy)phen-yl]methanesulfonyl}a-cetamide]	67	0.5
COC(=O)CCS(=O)(=O)C(C(=O)NCc1nnc(C)o1)c1nc2ccc(-c3ccccc3)cc2s1 (stereo not drawn) [Example B205, methyl 3-({[(5-methyl-1,3,4-oxadiazol-2-yl)meth-yl]carbamoyl}(6-phenyl-1,3-benzothiazol-2-yl)methanesulfonyl)pro-panoate]	101	205
NCCS(=O)(=O)C(C(=O)NCCS(N)(=O)=O)c1nc2ccc(-c3ccc(C(=O)N4CCOCC4)cc3)cc2s1 (stereo not drawn) [Example B159]	22	< 10
CS(=O)(=O)C(C(=O)NCCS(N)(=O)=O)c1nc2ccc(-c3ccc(C(=O)N4CCOCC4)cc3)cc2s1 (stereo not drawn) [Example B101, 2-(methylsulfonyl)-2-(6-(4-(4-morpholinylcarbonyl)phen-yl)-1,3-benzothiazol-2-yl)-N-(2-sulfamoylethyl)a-cetamide]	63	< 10
NS(=O)(=O)CCNC(=O)C(c1nc2ccc(-c3cnn(CCN4CCOCC4)c3)cc2s1)S(=O)(=O)Cc1ccc(C(F)(F)F)cc1 (stereo not drawn) [Example B73, 2-(6-(1-(2-(4-morpholinyl)ethyl)-1H-pyrazol-4-yl)-1,3-benzothiazol-2-yl)-N-(2-sulfamoylethyl)-2-((4-(trifluoromethyl)benzyl)sul-fonyl)acetamide]	15900	< 10
COCCN(C)C(=O)c1ccc(-c2ccc3nc(C(C(=O)NCCS(N)(=O)=O)S(=O)(=O)CC4CC4)sc3c2)cc1F (stereo not drawn) [Example B247, 4-(2-{cyclopropylmethane-sulfonyl[(2-sulfamoyl-ethyl)carbamoyl]methyl}-1,3-benzothiazol-6-yl)-2-fluoro-N-(2-methoxy-ethyl)-N-methylbenzamide]	127	6.1
NS(=O)(=O)CCNC(=O)C(c1nc2ccc(-c3ccccc3)cc2s1)S(=O)(=O)CCC(F)(F)F (stereo not drawn) [Example B284, 2-(6-phenyl-1,3-benzothiazol-2-yl)-N-(2-sulfamoylethyl)-2-(3,3,3-trifluoropropanesulfonyl)a-cetamide]	2.6	6.8
CS(=O)(=O)C(C(=O)NCCS(N)(=O)=O)c1nc2cc(-c3cncnc3)ccc2s1 (stereo not drawn) [Example B89, 2-(methylsulfonyl)-2-(5-(5-pyrimidinyl)-1,3-benzothiazol-2-yl)-N-(2-sulfamoylethyl)acetamide]	70	4.4
